Patent publication US6506781B1, “Oxazole PPAR antagonist” (SmithKline Beecham Corporation, priority 1999, dated 2003)

Test system: male ZDF/GMI fa/fa rats
Test: Experimental animal protocol: blood glucose, triglycerides and NEFAs in ZDF rats
Assay type: in vivo
Conditions: 150 mg/kg twice a day oral gavage, after 2 weeks, non-fasting, mean ± SEM
Description: Experimental Animal Protocol
Age and weight matched male ZDF/GMI fa/fa rats (Genetic Models) were housed at 72 degF. and 50% relative humidity with a 12 hr light and dark cycle. Starting at 8 weeks of age the animals were dosed twice a day by oral gavage with 150 mg/kg of example 2. After 2 weeks the animals were anesthetized with isofluorane, blood drawn by cardiac puncture, and non-fasting measurements of glucose, triglycerides, and non-esterified free fatty acids (NEFAS) were obtained. The data were calculated as the mean and standard error (SEM) from experiments performed on ten animals per treatment group. Two-tailed tests were performed to calculate P values using Excel on a personal computer. This research complied with the principles of laboratory animal care (NIH publication No. […], revised 1985) and company policy on the care and use of animals and related codes of practice.

Structure (SMILES): CCCc1nnc(C[C@H](Nc2ccccc2C(=O)c2ccccc2)c2ccc(OCCc3nc(-c4ccccc4)oc3C)cc2)o1 [Example 1, (S)-{{2-[1-(2-Benzoylphenyl)amino]-2-{4-[2-(5-methyl-2-phenyloxazol-4-yl)ethoxy]phenyl}ethyl}}-5-propyl-1,3,4-oxadiazole]
- Free Fatty Acids (control 1.48 ± 0.09): 1.14 ± 0.06 mEq/L
- Glucose (control 313 ± 62): 201 ± 13 mg/dL
- Triglycerides (control 1507 ± 143): 734 ± 102 mg/dL
